# Biological target: T1, human NaV1.8 (Homo sapiens, UniProt Q9Y5Y9)
# T1 construct: The following NaV1.8 recombinant cell line was used for recordings: HEK-NaV1.8 (NM 006514.1); expressed in transfected cells; host or cells: HEK (recombinant cell line HEK-NaV1.8)
# Test: Electrophysiology: automated whole-cell voltage-clamp (patch clamp, Qube384) recordings of sodium currents in HEK-NaV1.8 cells
# Format: cell-based
# Conditions: potency data either taken from inactivated or resting state, read-out: Potency category (human NaV1.8 IC50)
# Description: Electrophysiology: Voltage-Clamp Recordings
# The following NaV1.8 recombinant cell line was used for recordings: HEK-NaV1.8 (NM 006514.1) with in (NM 018400.3).
# Sodium currents were measured using the patch clamp technique in the whole-cell configuration using the Qube384 (Sophion A/S, Copenhagen, Denmark) automated voltage clamp platform. “Multi hole” plates were used for the cell line expressing NaV1.8 while “single hole” plates were used for the recombinant cell lines expressing the other subtypes. Appropriate filters (for minimum seal resistance and minimum current size) and series resistance compensation (for high quality sodium channel recordings) were applied. Data was collected at ambient room temperature.
# The recording extracellular solution contained (in mM): NaCl 145 mM, KCl 4 mM, CaCl2 2 mM, MgCl2 1 mM, HEPES 10 mM, Glucose 10 mM, pH 7.4 (NaOH). The intracellular recording solution contained (in mM): CsF 120 mM, CsCl 20 mM, NaCl 10 mM, EGTA 10 mM, HEPES 10 mM, pH 7.2 (CsOH). Currents were recorded at 25 kHz sampling frequency and filtered at 5 kHz. Series resistance compensation was applied at 65%.
# Vehicle (VEH) is the control condition where cells are exposed to 0.3% DMSO without compound. All runs include VEH controls being exposed to the same voltage protocols to assess non-compound related phenomena such as run down and then used to isolate compound dependent effects on currents.
# To check for state-dependence inhibition, the following voltage-sequence was applied every 20 seconds:
# From a resting membrane potential of −120 mV, the first test pulse (P1; 20 ms to −10 mV) was applied to check for channels in the Resting State followed by a brief recovery (20 ms to −120 mV), then holding the membrane voltage to V112 (4 seconds at voltage to obtain half the channel at Rest and half Inactivated) with a subsequent second test pulse (P2; 20 ms to −10 mV) to check for channels in the Inactivated State, followed by another brief recovery (20 ms to −120 mV) and a final third test pulse (P3; 20 ms to −10 mV) to check for recovered channels.
# To check for frequency-dependent inhibition, a 10 Hz protocol and a 20 Hz protocol were applied; namely,
# From a resting membrane potential of −120 mV, 40-pulses (10 ms to −10 mV) was applied at 10 Hz (at 100 ms between pulses) and then at 20 Hz (at 50 ms between pulses).
# Each parameter was recorded (P1, P2, P3, P40 from 10 Hz and P40 from 20 Hz) during a control period (lasting 5 minutes) when establishing the baseline and during compound period (lasting ˜12 minutes) when test compound (or vehicle) was applied. For each parameter, the value at the end of the compound period was normalized to the vehicle baseline; as follows
# To adjust for any variance in the Na^+ current signal during the compound period (owing to cumulative inactivation independent of compound or shifts in biophysics over time), a dedicated segment of the recording wells in each 384 plate were dedicated to having only vehicle exposure. These vehicle-only recordings were used to correct for any apparent “run-up” or “run-down” in the experiment.
# The adjusted inhibition was calculated as follows: […]
# Percent inhibition was determined and IC50 values were calculated using a 4 parameter logistic model within XLFit Software (IDBS, Boston MA):
# [formula] where A and B are the maximal and minimum inhibition respectively, C is the IC50 concentration and D is the (Hill) slope.
# The potency data was either taken from inactivated or resting state.
# T1 sequence (Q9Y5Y9 whole entry): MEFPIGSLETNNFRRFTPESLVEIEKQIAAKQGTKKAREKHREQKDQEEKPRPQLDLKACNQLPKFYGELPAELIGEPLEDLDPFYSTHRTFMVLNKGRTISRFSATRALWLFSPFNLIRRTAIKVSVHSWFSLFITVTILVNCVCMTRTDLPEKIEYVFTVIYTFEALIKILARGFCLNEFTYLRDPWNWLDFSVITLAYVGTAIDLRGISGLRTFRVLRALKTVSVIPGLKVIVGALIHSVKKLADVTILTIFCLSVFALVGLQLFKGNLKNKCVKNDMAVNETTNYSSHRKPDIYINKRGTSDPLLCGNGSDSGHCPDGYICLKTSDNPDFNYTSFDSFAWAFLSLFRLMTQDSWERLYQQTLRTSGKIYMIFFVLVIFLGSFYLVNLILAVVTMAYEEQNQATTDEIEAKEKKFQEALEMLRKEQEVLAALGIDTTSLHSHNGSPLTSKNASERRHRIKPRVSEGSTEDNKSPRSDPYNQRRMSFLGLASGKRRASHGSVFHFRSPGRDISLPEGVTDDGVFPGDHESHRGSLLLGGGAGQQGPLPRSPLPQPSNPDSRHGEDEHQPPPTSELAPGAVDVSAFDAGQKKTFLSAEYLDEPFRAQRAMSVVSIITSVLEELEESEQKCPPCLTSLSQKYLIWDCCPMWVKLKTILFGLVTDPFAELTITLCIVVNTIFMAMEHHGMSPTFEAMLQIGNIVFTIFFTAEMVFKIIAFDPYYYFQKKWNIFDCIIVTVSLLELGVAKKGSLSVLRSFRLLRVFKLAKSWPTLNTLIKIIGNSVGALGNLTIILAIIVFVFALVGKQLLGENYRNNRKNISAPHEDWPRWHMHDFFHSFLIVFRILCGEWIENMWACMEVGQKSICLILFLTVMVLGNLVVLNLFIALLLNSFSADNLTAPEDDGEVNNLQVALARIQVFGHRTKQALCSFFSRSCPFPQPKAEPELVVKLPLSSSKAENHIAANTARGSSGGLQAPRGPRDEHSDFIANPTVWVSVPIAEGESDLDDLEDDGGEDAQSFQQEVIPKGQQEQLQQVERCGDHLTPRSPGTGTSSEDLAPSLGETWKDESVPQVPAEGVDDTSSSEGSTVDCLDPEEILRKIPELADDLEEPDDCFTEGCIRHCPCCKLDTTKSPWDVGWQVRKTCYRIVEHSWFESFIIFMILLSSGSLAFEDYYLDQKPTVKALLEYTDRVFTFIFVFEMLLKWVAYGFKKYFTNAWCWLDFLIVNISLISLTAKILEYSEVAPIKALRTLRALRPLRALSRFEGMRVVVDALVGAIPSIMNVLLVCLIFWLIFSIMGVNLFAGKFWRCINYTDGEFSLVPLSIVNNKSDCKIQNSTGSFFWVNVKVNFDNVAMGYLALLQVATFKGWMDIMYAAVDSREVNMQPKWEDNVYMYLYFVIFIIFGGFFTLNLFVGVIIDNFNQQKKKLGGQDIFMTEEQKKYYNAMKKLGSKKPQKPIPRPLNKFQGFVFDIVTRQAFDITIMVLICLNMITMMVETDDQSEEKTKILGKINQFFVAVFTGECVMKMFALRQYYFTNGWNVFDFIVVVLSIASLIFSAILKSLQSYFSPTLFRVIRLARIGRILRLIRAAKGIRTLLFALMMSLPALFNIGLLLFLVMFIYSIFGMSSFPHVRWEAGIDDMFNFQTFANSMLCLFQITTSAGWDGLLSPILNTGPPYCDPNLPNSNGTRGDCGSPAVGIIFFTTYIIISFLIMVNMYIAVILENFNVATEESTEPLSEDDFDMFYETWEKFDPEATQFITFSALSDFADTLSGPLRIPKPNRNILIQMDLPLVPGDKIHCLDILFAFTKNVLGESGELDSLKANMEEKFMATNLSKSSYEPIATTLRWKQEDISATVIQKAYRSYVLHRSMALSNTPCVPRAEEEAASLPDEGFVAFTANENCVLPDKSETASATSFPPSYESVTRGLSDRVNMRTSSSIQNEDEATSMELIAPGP
# T1 sequence (Q9NY72 23-215 partner): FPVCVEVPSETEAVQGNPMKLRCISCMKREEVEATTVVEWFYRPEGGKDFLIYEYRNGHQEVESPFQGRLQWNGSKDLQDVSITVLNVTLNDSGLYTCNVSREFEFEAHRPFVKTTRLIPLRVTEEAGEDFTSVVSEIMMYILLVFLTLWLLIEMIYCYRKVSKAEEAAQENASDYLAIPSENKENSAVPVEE
row,IC50 [nM],Compound
1,1000 to 10000,"Cc1nn(CC2CCCCC2)c(C(=O)Nc2cc[nH]c(=O)c2)c1C [SC-07, 1-(cyclohexylmethyl)-3,4-dimethyl-N-(2-oxo-1,2-dihydropyridin-4-yl)-1H-pyrazole-5-carboxamide]"
2,1000 to 10000,"CS(=O)(=O)c1cccc(NC(=O)c2c(F)cnn2CC2CCCCC2)c1 [SC-08, 2-(cyclohexylmethyl)-4-fluoro-N-(3-methylsulfonylphenyl)pyrazole-3-carboxamide]"
3,100 to 1000,"CS(=O)(=O)c1cccc(NC(=O)c2cc(C(F)F)nn2CC2CCCCC2)c1 [SC-09, 1-(cyclohexylmethyl)-3-(difluoromethyl)-N-(3-(methylsulfonyl)phenyl)-1H-pyrazole-5-carboxamide]"
4,100 to 1000,"CS(=O)(=O)c1cccc(NC(=O)c2c(C#N)cnn2CC2CCCCC2)c1 [SC-10, 4-cyano-1-(cyclohexylmethyl)-N-(3-(methylsulfonyl)phenyl)-1H-pyrazole-5-carboxamide]"
5,1000 to 10000,"Cc1cc(C(=O)Nc2cccc(S(C)(=O)=O)c2)n(CC2CCCCC2)n1 [SC-11, 2-(cyclohexylmethyl)-5-methyl-N-(3-methylsulfonylphenyl)pyrazole-3-carboxamide]"
6,100 to 1000,"CS(=O)(=O)c1cccc(NC(=O)c2cc(C3CC3)nn2CC2CCCCC2)c1 [SC-12, 2-(cyclohexylmethyl)-5-cyclopropyl-N-(3-methylsulfonylphenyl)pyrazole-3-carboxamide]"
7,100 to 1000,"CS(=O)(=O)c1cc(NC(=O)c2c(C(F)(F)F)cnn2CC2CCC(F)(F)CC2)ccc1F [SC-13, 2-[(4,4-difluorocyclohexyl)methyl]-N-(4-fluoro-3-methylsulfonylphenyl)-4-(trifluoromethyl)pyrazole-3-carboxamide]"
8,1000 to 10000,"CS(=O)(=O)c1cc(NC(=O)c2c(C(F)(F)F)cnn2CC2CCC(F)(F)CC2)ccn1 [SC-14, 2-[(4,4-difluorocyclohexyl)methyl]-N-(2-methylsulfonylpyridin-4-yl)-4-(trifluoromethyl)pyrazole-3-carboxamide]"
9,1000 to 10000,"CS(=O)(=O)c1cncc(NC(=O)c2c(C(F)(F)F)cnn2CC2CCC(F)(F)CC2)c1 [SC-15, 2-[(4,4-difluorocyclohexyl)methyl]-N-(5-methylsulfonylpyridin-3-yl)-4-(trifluoromethyl)pyrazole-3-carboxamide]"
10,1000 to 10000,"CS(=O)(=O)c1cccc(NC(=O)c2c(C(F)(F)F)cnn2CC2CCC(F)(F)CC2)c1F [SC-16, 2-[(4,4-difluorocyclohexyl)methyl]-N-(2-fluoro-3-methylsulfonylphenyl)-4-(trifluoromethyl)pyrazole-3-carboxamide]"
11,100 to 1000,"COc1cc(C(=O)Nc2cccc(S(C)(=O)=O)c2)n(CC2CCCCC2)n1 [SC-17, 2-(cyclohexylmethyl)-5-methoxy-N-(3-methylsulfonylphenyl)pyrazole-3-carboxamide]"
12,1000 to 10000,"CC(C)c1cnn(CC2CCCCC2)c1C(=O)Nc1cccc(S(C)(=O)=O)c1 [SC-18, 2-(cyclohexylmethyl)-N-(3-methylsulfonylphenyl)-4-propan-2-ylpyrazole-3-carboxamide]"
13,100 to 1000,"CS(=O)(=O)c1cccc(NC(=O)c2c(C3CC3)cnn2CC2CCCCC2)c1 [SC-19, 2-(cyclohexylmethyl)-4-cyclopropyl-N-(3-methylsulfonylphenyl)pyrazole-3-carboxamide]"
14,1000 to 10000,"NC(=O)c1ccc(NC(=O)c2c(C(F)(F)F)cnn2CC2CCC(F)(F)CC2)cc1F [SC-21, N-(4-carbamoyl-3-fluorophenyl)-1-[(4,4-difluorocyclohexyl)methyl]-4-(trifluoromethyl)-1H-pyrazole-5-carboxamide]"
15,1000 to 10000,"CS(=O)(=O)c1ccc(F)c(NC(=O)c2c(C(F)(F)F)cnn2CC2CCC(F)(F)CC2)c1 [SC-22, 1-[(4,4-difluorocyclohexyl)methyl]-N-(2-fluoro-5-methanesulfonylphenyl)-4-(trifluoromethyl)-1H-pyrazole-5-carboxamide]"
16,100 to 1000,"CS(=O)(=O)c1cccc(NC(=O)c2c(C(F)(F)F)cnn2CC2CCCC(F)(F)C2)c1 (stereo not drawn) [SC-23, 2-[(3,3-difluorocyclohexyl)methyl]-N-(3-methylsulfonylphenyl)-4-(trifluoromethyl)pyrazole-3-carboxamide]"
17,100 to 1000,"CS(=O)(=O)c1cccc(NC(=O)c2c(C(F)(F)F)cnn2CC2CCC2)c1 [SC-24, 2-(cyclobutylmethyl)-N-(3-methylsulfonylphenyl)-4-(trifluoromethyl)pyrazole-3-carboxamide]"
18,100 to 1000,"CS(=O)(=O)c1cccc(NC(=O)c2c(C(F)(F)F)cnn2CC2CCCC2)c1 [SC-25, 2-(cyclopentylmethyl)-N-(3-methylsulfonylphenyl)-4-(trifluoromethyl)pyrazole-3-carboxamide]"
19,≤ 100,"CS(=O)(=O)c1cccc(NC(=O)c2c(C(F)(F)F)cnn2CC2CCCCC2)c1 [SC-26, 2-(cyclohexylmethyl)-N-(3-methylsulfonylphenyl)-4-(trifluoromethyl)pyrazole-3-carboxamide]"
20,≤ 100,"CS(=O)(=O)c1cccc(NC(=O)c2c(C(F)(F)F)cnn2CC2CCCCCC2)c1 [SC-27, 2-(cycloheptylmethyl)-N-(3-methylsulfonylphenyl)-4-(trifluoromethyl)pyrazole-3-carboxamide]"
21,1000 to 10000,"CS(=O)(=O)c1cccc(NC(=O)c2c(C(F)(F)F)cnn2CC2CCOCC2)c1 [SC-28, N-(3-methylsulfonylphenyl)-2-(oxan-4-ylmethyl)-4-(trifluoromethyl)pyrazole-3-carboxamide]"
22,100 to 1000,"CC(C1CCCCC1)n1ncc(C(F)(F)F)c1C(=O)Nc1cccc(S(C)(=O)=O)c1 (stereo not drawn) [SC-29, 2-(1-cyclohexylethyl)-N-(3-methylsulfonylphenyl)-4-(trifluoromethyl)pyrazole-3-carboxamide]"
23,100 to 1000,"O=C(Nc1cc[nH]c(=O)c1)c1c(C(F)(F)F)cnn1CC1CCCCC1 [SC-30, 1-(cyclohexylmethyl)-N-(2-oxo-1,2-dihydropyridin-4-yl)-4-(trifluoromethyl)-1H-pyrazole-5-carboxamide]"
24,100 to 1000,"O=C(Nc1ccnc(O)c1)c1c(C(F)(F)F)cnn1CC1CCCCCC1 [SC-31, 2-(cycloheptylmethyl)-N-(2-hydroxypyridin-4-yl)-4-(trifluoromethyl)pyrazole-3-carboxamide]"
25,1000 to 10000,"CC(C1CCCCC1)n1ncc(C(F)(F)F)c1C(=O)Nc1ccnc(O)c1 (stereo not drawn) [SC-32, 2-(1-cyclohexylethyl)-N-(2-hydroxypyridin-4-yl)-4-(trifluoromethyl)pyrazole-3-carboxamide]"
26,≤ 100,"NS(=O)(=O)c1cccc(NC(=O)c2c(C(F)(F)F)cnn2CC2CCCCC2)c1 [SC-33, 2-(cyclohexylmethyl)-N-(3-sulfamoylphenyl)-4-(trifluoromethyl)pyrazole-3-carboxamide]"
27,≤ 100,"NC(=O)c1cc(NC(=O)c2c(C(F)(F)F)cnn2CC2CCCCC2)ccc1F [SC-35, N-(3-carbamoyl-4-fluorophenyl)-1-(cyclohexylmethyl)-4-(trifluoromethyl)-1H-pyrazole-5-carboxamide]"
28,100 to 1000,"CS(=O)(=O)n1cc(NC(=O)c2c(C(F)(F)F)cnn2CC2CCCCC2)cn1 [SC-36, 2-(cyclohexylmethyl)-N-(1-methylsulfonylpyrazol-4-yl)-4-(trifluoromethyl)pyrazole-3-carboxamide]"
29,1000 to 10000,"Cc1cnn(CC2CCCCC2)c1C(=O)Nc1cccc(S(C)(=O)=O)c1 [SC-37, 2-(cyclohexylmethyl)-4-methyl-N-(3-methylsulfonylphenyl)pyrazole-3-carboxamide]"
30,100 to 1000,"CS(=O)(=O)c1cccc(NC(=O)c2cc(C#N)nn2CC2CCCCC2)c1 [SC-38, 5-cyano-2-(cyclohexylmethyl)-N-(3-methylsulfonylphenyl)pyrazole-3-carboxamide]"

# Source: US11999699B2, “Substituted pyrazole amides” (GRUENENTHAL GMBH, priority 2021, dated 2024)
